# ChEMBL document CHEMBL5247620, “Lupane derivatives containing various aryl substituents in the position 3 have selective cytostatic effect in leukemic cancer cells including resistant phenotypes” (Eur J Med Chem, 2022)
# The source made the active and inactive calls. The calls are words filed in the database; no cut-off is given here.
# Tests used:
# [1] = system: CCRF-CEM; assay: Induction of apoptosis in human CCRF-CEM cells assessed as decrease in cyclin A protein expression level at 5 times IC50 concentration incubated for 24 hrs by western blot assay; format: functional, cell-based
# [2] = system: CCRF-CEM; assay: Induction of apoptosis in human CCRF-CEM cells assessed as effect on total Rb protein level at 5 times IC50 concentration incubated for 24 hrs by western blot assay; format: functional, cell-based
# [3] = Chemical stability of the compound in PBS buffer assessed as compound remaining at pH 7.4 at 2 uM measured after 60 mins by RF-MS analysis; format: physicochemical; settings: read-out: Stability
# [4] = Microsomal stability in human liver microsome as compound remaining at 2 uM measured after 60 mins in presence of NADPH by RF-MS analysis; format: ADME; settings: liver microsomes, read-out: Stability
# [5] = system: CCRF-CEM; assay: Induction of apoptosis in human CCRF-CEM cells assessed as decrease in cell number at 1 times IC50 concentration incubated for 24 to 74 hrs by annexin V FITC/propidium iodide staining based flow cytometry; format: functional; settings: time 24-74 hrs
# [6] = Plasma stability in human assessed as compound remaining at 2 uM measured after 60 mins by RF-MS analysis; format: ADME, cell-free; settings: read-out: Stability
# [7] = Plasma stability in human assessed as compound remaining at 2 uM measured after 120 mins by RF-MS analysis; format: ADME, cell-free; settings: read-out: Stability
# [8] = system: U2OS; assay: Cytotoxicity against human U2OS cells assessed as inhibition of cell growth incubated for 72 hrs by MTS assay; format: functional, cell-based
# [9] = Cytotoxicity against human BJ cells assessed as inhibition of cell growth incubated for 72 hrs by MTS assay; format: toxicity, cell-based
# [10] = Cytotoxicity against human p53HCT116 cells assessed as inhibition of cell growth incubated for 72 hrs by MTS assay; format: functional, cell-based; settings: p53HCT116, 72 h
# [11] = system: CCRF-CEM; assay: Cytotoxicity against human CCRF-CEM cells assessed as inhibition of cell growth incubated for 72 hrs by MTS assay; format: functional, cell-based
# [12] = system: CCRF-CEM; assay: Induction of apoptosis in human CCRF-CEM cells assessed as late apoptotic cells at 5 times IC50 concentration incubated for 24 hrs by annexin V FITC/propidium iodide staining based flow cytometry (reference value: 1.4 %); format: functional
# [13] = Apparent permeability across apical to basolateral side in dog MDCK-MDR1 cells assessed as drug recovery incubated for 1 hr by high-throughput spectrometric analysis; format: ADME, cell-based, Canis lupus familiaris; settings: read-out: Drug recovery
# [14] = system: K562; assay: Cytotoxicity against human K562 cells assessed as inhibition of cell growth incubated for 72 hrs by MTS assay; format: functional, cell-based; settings: K562, 72 h
# [15] = Cytotoxicity against human K562-Tax cells assessed as inhibition of cell growth incubated for 72 hrs by MTS assay; format: functional, cell-based
# [16] = system: A549; assay: Cytotoxicity against human A549 cells assessed as inhibition of cell growth incubated for 72 hrs by MTS assay; format: functional, cell-based; settings: A549, 72 h
# [17] = Apparent permeability across apical to basolateral side in human Caco-2 cells incubated for 2 hr by high-throughput spectrometric analysis; format: ADME, cell-based
# [18] = Chemical stability of the compound in PBS buffer assessed as compound remaining at pH 7.4 at 2 uM measured after 15 mins by RF-MS analysis; format: physicochemical; settings: read-out: Stability
# [19] = Microsomal stability in human liver microsome as compound remaining at 2 uM measured after 15 mins in presence of NADPH by RF-MS analysis; format: ADME; settings: liver microsomes, read-out: Stability
# [20] = Chemical stability of the compound in PBS buffer assessed as compound remaining at pH 7.4 at 2 uM measured after 30 mins by RF-MS analysis; format: physicochemical; settings: read-out: Stability
# [21] = Microsomal stability in human liver microsome as compound remaining at 2 uM measured after 30 mins in presence of NADPH by RF-MS analysis; format: ADME; settings: liver microsomes, read-out: Stability
# [22] = Apparent permeability across apical to basolateral side in human Caco-2 cells assessed as drug recovery incubated for 2 hr by high-throughput spectrometric analysis; format: ADME, cell-based; settings: read-out: Drug recovery
# [23] = Apparent permeability across apical to basolateral side in dog MDCK-MDR1 cells incubated for 1 hr by high-throughput spectrometric analysis; format: ADME, cell-based, Canis lupus familiaris
# [24] = Efflux ratio of apparent permeability from basolateral to apical side over apical to basolateral side in dog MDCK-MDR1 cells incubated for 1 hr by high-throughput spectrometric analysis; format: ADME, cell-based, Canis lupus familiaris
# [25] = Plasma protein binding in human assessed as fraction bound at 10 uM incubated for 4 hrs by rapid equilibrium dialysis based RF-MS analysis; format: ADME, cell-free; settings: read-out: PPB (converted)
# [26] = system: CCRF-CEM; assay: Induction of apoptosis in human CCRF-CEM cells assessed as late apoptotic cells at 1 times IC50 concentration incubated for 24 hrs by annexin V FITC/propidium iodide staining based flow cytometry (reference value: 1.4 %); format: functional
# [27] = Chemical stability of the compound in PBS buffer assessed as compound remaining at pH 7.4 at 2 uM measured after 120 mins by RF-MS analysis; format: physicochemical; settings: read-out: Stability
# [28] = system: CCRF-CEM; assay: Induction of cell cycle arrest in human CCRF-CEM cells assessed as accumulation of cells at G1 phase at 1 times IC50 concentration incubated for 24 to 72 hrs by propidium iodide staining based flow cytometry; format: functional; settings: time 24-72 hrs
# [29] = system: CCRF-CEM; assay: Induction of apoptosis in human CCRF-CEM cells assessed as decrease in cell number at 5 times IC50 concentration incubated for 24 to 74 hrs by annexin V FITC/propidium iodide staining based flow cytometry; format: functional; settings: time 24-74 hrs
# [30] = system: CCRF-CEM; assay: Induction of apoptosis in human CCRF-CEM cells assessed as early apoptotic cells at 5 times IC50 concentration incubated for 24 hrs by annexin V FITC/propidium iodide staining based flow cytometry (reference value: 2.6 %); format: functional
# [31] = system: CCRF-CEM; assay: Induction of apoptosis in human CCRF-CEM cells assessed as early apoptotic cells at 1 times IC50 concentration incubated for 24 hrs by annexin V FITC/propidium iodide staining based flow cytometry (reference value: 2.6 %); format: functional
# [32] = system: CCRF-CEM; assay: Induction of apoptosis in human CCRF-CEM cells assessed as decrease in Rb phosphorylation level at Ser807/811 at 5 times IC50 concentration incubated for 24 hrs by western blot assay; format: functional, cell-based
# [33] = system: CCRF-CEM; assay: Induction of apoptosis in human CCRF-CEM cells assessed as viable cells at 5 times IC50 concentration incubated for 24 hrs by annexin V FITC/propidium iodide staining based flow cytometry (reference value: 96 %); format: functional
# [34] = system: CCRF-CEM; assay: Induction of cell cycle arrest in human CCRF-CEM cells assessed as decrease of cell population at S phase at 1 times IC50 concentration incubated for 24 to 72 hrs by propidium iodide staining based flow cytometry; format: functional; settings: time 24-72 hrs
# [35] = system: CCRF-CEM; assay: Induction of cell cycle arrest in human CCRF-CEM cells assessed as decrease of cell population at S phase at 5 times IC50 concentration incubated for 24 to 72 hrs by propidium iodide staining based flow cytometry; format: functional; settings: time 24-72 hrs
# [36] = Cytotoxicity against human MRC5 cells assessed as inhibition of cell growth incubated for 72 hrs by MTS assay; format: toxicity, cell-based
# [37] = Plasma stability in human assessed as compound remaining at 2 uM measured after 15 mins by RF-MS analysis; format: ADME, cell-free; settings: read-out: Stability
# [38] = Plasma stability in human assessed as compound remaining at 2 uM measured after 30 mins by RF-MS analysis; format: ADME, cell-free; settings: read-out: Stability
# [39] = Efflux ratio of apparent permeability from basolateral to apical side over apical to basolateral side in human Caco-2 cells incubated for 2 hr by high-throughput spectrometric analysis; format: ADME, cell-based
# [40] = system: HCT-116; assay: Cytotoxicity against human HCT-116 cells assessed as inhibition of cell growth incubated for 72 hrs by MTS assay; format: functional, cell-based; settings: HCT-116, 72 h
# [41] = system: CEM-DNR; assay: Cytotoxicity against human CEM-DNR cells assessed as inhibition of cell growth incubated for 72 hrs by MTS assay; format: functional, cell-based
# [42] = system: CCRF-CEM; assay: Induction of apoptosis in human CCRF-CEM cells assessed as viable cells at 1 times IC50 concentration incubated for 24 hrs by annexin V FITC/propidium iodide staining based flow cytometry (reference value: 96 %); format: functional
# [43] = system: CCRF-CEM; assay: Induction of apoptosis in human CCRF-CEM cells assessed as effect on total Rb protein level at 1 times IC50 concentration incubated for 24 hrs by western blot assay; format: functional, cell-based
# [44] = system: CCRF-CEM; assay: Induction of apoptosis in human CCRF-CEM cells assessed as decrease in Bcl-2 protein expression level at 5 times IC50 concentration incubated for 24 hrs by western blot assay; format: functional, cell-based
# [45] = system: CCRF-CEM; assay: Induction of apoptosis in human CCRF-CEM cells assessed as decrease in Rb phosphorylation level at Ser780 at 5 times IC50 concentration incubated for 24 hrs by western blot assay; format: functional, cell-based
# [46] = system: CCRF-CEM; assay: Induction of cell cycle arrest in human CCRF-CEM cells assessed as accumulation of cells at G1 phase at 5 times IC50 concentration incubated for 24 to 72 hrs by propidium iodide staining based flow cytometry; format: functional; settings: time 24-72 hrs
smiles,measurement,setting,value
C=C(C)[C@@H]1CC[C@]2(C(=O)O)CC[C@]3(C)[C@H](CC[C@@H]4[C@@]5(C)CC=C(c6cccc(O)c6)C(C)(C)[C@@H]5CC[C@]43C)[C@@H]12,Activity,[1],Active
same,Activity,[2],inactive
same,"remaining at 1 h, 2 µM",[3],102%
same,"remaining at 1 h, 2 µM",[4],95.8%
same,Activity,[5],Active
same,"remaining at 1 h, 2 µM",[6],85.6%
same,"remaining at 2 h, 2 µM",[7],86.7%
same,IC50,[8],17 µM
same,IC50 at 72 h,[9],31 µM
same,IC50,[10],12 µM
same,IC50,[11],3.9 µM
same,Activity,[12],5%
same,recovery at 1 h,[13],67.6%
same,IC50,[14],19 µM
same,IC50,[15],3.8 µM
same,IC50,[16],14 µM
same,Papp A→B at 2 h,[17],2.32 ×10⁻⁶ cm/s
same,"remaining at 0.25 h, 2 µM",[18],99.6%
same,"remaining at 0.25 h, 2 µM",[19],99.3%
same,"remaining at 0.5 h, 2 µM",[20],93.5%
same,"remaining at 0.5 h, 2 µM",[21],97.8%
same,recovery at 2 h,[22],97.5%
same,Papp A→B at 1 h,[23],8.84 ×10⁻⁶ cm/s
same,efflux ratio at 1 h,[24],1.29
same,"fraction unbound at 4 h, 10 µM",[25],0.334
same,Activity,[26],2.1%
same,"remaining at 2 h, 2 µM",[27],105%
same,Activity,[28],Active
same,Activity,[29],Active
same,Activity,[30],6%
same,Activity,[31],3.4%
same,Activity,[32],Active
same,Activity,[33],89%
same,Activity,[34],Active
same,Activity,[35],Active
same,IC50 at 72 h,[36],19 µM
same,"remaining at 0.25 h, 2 µM",[37],90.3%
same,"remaining at 0.5 h, 2 µM",[38],87.4%
same,efflux ratio at 2 h,[39],1.72
same,IC50,[40],4 µM
same,IC50,[41],4 µM
same,Activity,[42],94.5%
same,Activity,[43],inactive
same,Activity,[44],Active
same,Activity,[45],Active
same,Activity,[46],20%
C=C(C)[C@@H]1CC[C@]2(C(=O)O)CC[C@]3(C)[C@H](CC[C@@H]4[C@@]5(C)CC=C(c6ccc(O)cc6)C(C)(C)[C@@H]5CC[C@]43C)[C@@H]12,Activity,[2],inactive
same,"remaining at 1 h, 2 µM",[3],94%
same,"remaining at 1 h, 2 µM",[4],92.9%
same,Activity,[5],Active
same,"remaining at 1 h, 2 µM",[6],86.8%
same,"remaining at 2 h, 2 µM",[7],74.4%
same,IC50,[8],11 µM
same,IC50 at 72 h,[9],31 µM
same,IC50,[10],6.4 µM
same,IC50,[11],0.69 µM
same,Activity,[12],1.9%
same,recovery at 1 h,[13],55.9%
same,IC50,[14],6.2 µM
same,IC50,[15],3.3 µM
same,IC50,[16],6.2 µM
same,Papp A→B at 2 h,[17],1.69 ×10⁻⁶ cm/s
same,"remaining at 0.25 h, 2 µM",[18],98.9%
same,"remaining at 0.25 h, 2 µM",[19],96.7%
same,"remaining at 0.5 h, 2 µM",[20],98.7%
same,"remaining at 0.5 h, 2 µM",[21],93.2%
same,recovery at 2 h,[22],65.2%
same,Papp A→B at 1 h,[23],4.27 ×10⁻⁶ cm/s
same,efflux ratio at 1 h,[24],2.05
same,"fraction unbound at 4 h, 10 µM",[25],0.242
same,Activity,[26],1.6%
same,"remaining at 2 h, 2 µM",[27],89.6%
same,Activity,[28],Active
same,Activity,[29],Active
same,Activity,[30],3.9%
same,Activity,[31],3.4%
same,Activity,[33],94.2%
same,Activity,[34],Active
same,Activity,[35],Active
same,IC50 at 72 h,[36],27 µM
same,"remaining at 0.25 h, 2 µM",[37],93.9%
same,"remaining at 0.5 h, 2 µM",[38],88.1%
same,efflux ratio at 2 h,[39],1.47
same,IC50,[40],7.4 µM
same,IC50,[41],3.3 µM
same,Activity,[42],95%
same,Activity,[43],inactive
same,Activity,[46],Active
